Measurements reported in patent US9439982B2, “Fluorescent cyanine-polyamine derivatives as a diagnostic probe” (PIERRE FABRE MEDICAMENT, priority 2010, dated 2016).
Values joined by “and” are separate entries in the source; they are usually repeats but may differ in a detail not shown here. Equal values may be shown once.

Legend:
[1] = system: B16/F10-Luc mouse melanoma cells; test: In vivo detection by fluorescence imaging of the probe accumulating in a tumour on an animal; conditions: for Tumour fixation: Fluorescence at t = 24 hrs: individual mice, 24 hrs post-injection, subcutaneous B16/F10-Luc tumour in C57B16 mice; for Tumour fixation: Mean fluorescence: 24 hrs; for Detection of the probe's fluorescence in the tumour in vivo: tumour B16F10 in mice, fluorescence imaging after intravenous injection
Procedure: (§1) 6 healthy male C57B16 mice, aged 11 weeks, were used to evaluate the tolerance of the injection of increasing doses of the probe of example 7 (F98942) (25, 50 and 100 μg). 11 male C57B16 mice aged 10 weeks were grafted subcutaneously on the right rear paw with 2.5.10^5 B16/F10-Luc mouse melanoma cells.
(§2) The probe F98942 is placed in solution in sterile 5% glucose serum extemporaneously.
The mice were injected with 50 μg or 25 μg of F98942 or PBS (Phosphate Buffered Saline) intravenously. They were then anaesthetised by isoflurane gas inhalation (3% isoflurane/oxygen) prior to the fluorescence imaging examination 24 and 48 hours post-injection. After 48 hours, the tumours were removed and analysed by means of fluorescence imaging. […]

[2] = Tolerance of the injection of increasing doses of the probe in healthy mice; format: in vivo; conditions: healthy male C57B16 mice, 25, 50 and 100 μg
Procedure: as §1, §2

Compound	Tumour fixation: Fluorescence at t = 24 hrs ([1]; 25 μg intravenously)	Tumour fixation: Fluorescence at t = 24 hrs ([1]; 50 μg intravenously)	Tumour fixation: Mean fluorescence ([1]; mean of mice 1-4, 50 μg intravenously)	Tumour fixation: Mean fluorescence ([1]; mean of mice 5-6, 25 μg intravenously)	Detection of the probe's fluorescence in the tumour in vivo [1]	Tolerance of injection [2]
CCCCN1/C(=C/C=C/C=C/C=C/C2=[N+](CCCCCC(=O)NCCCNCCCCNCCCN)c3ccccc3C2(C)C)C(C)(C)c2ccccc21.[Br-] [Example F98942, 1-(5-{3-[4-(3-aminopropylamino)butylamino]-propylcarbamoyl}-pentyl)-2-{(1E,3E,5E)-7-[1-butyl-3,3-dimethyl-1,3-dihydroindol-(2E)-ylidene]-hepta-1,3,5-trienyl}-3,3-dimethyl-3H-indolium bromide]	1.52 · 10^7 [p/s/cm^2/sr]/[μW/cm^2] and 2.10 · 10^7 [p/s/cm^2/sr]/[μW/cm^2]	3.22 · 10^7 [p/s/cm^2/sr]/[μW/cm^2] and 3.08 · 10^7 [p/s/cm^2/sr]/[μW/cm^2] and 3.12 · 10^7 [p/s/cm^2/sr]/[μW/cm^2] and 3.01 · 10^7 [p/s/cm^2/sr]/[μW/cm^2]	3.14 · 10^7 [p/s/cm^2/sr]/[μW/cm^2]	1.81 · 10^7 [p/s/cm^2/sr]/[μW/cm^2]	detected	well-tolerated regardless of the dose
CC1(C)C(/C=C/C2=C(c3ccc(C(=O)NCCCNCCCCNCCCN)cc3)C(=C/C=C3/N(CCCCS(=O)(=O)O)c4ccc5ccccc5c4C3(C)C)/CCC2)=[N+](CCCCS(=O)(=O)[O-])c2ccc3ccccc3c21 [comparative probe, reference compound]					not detected	
